The test system of experiment [1] is endogenous mouse HTT transcript or protein. Description: BacHD mice: effect on endogenous mouse HTT. Format: in vivo. The procedure:
Total RNA from cerebrum and cerebellum was extracted using RNeasy Plus kit (Qiagen) after homogenized in Precellys at 6000 rpm for 40 sec. RNA from blood was extracted using PAXgene blood RNA kit (Qiagen) according to manufacturer protocol. The RNA was quantified by Nanodrop 2000 (Thermo Scientific). cDNAs were synthesized from 140-400 ng RNA using Maxima First strand cDNA synthesis kit using a mix of oligo dT and random hexamers (Thermo Scientific) in 20 uL reaction at 25° C. for 10 min, 50° C. for 15 min then 85° C. for 5 min. Quantitative PCR was performed using Taqman Fast Advanced master mix (Thermo Scientific) in 20 uL with 4 uL of cDNA reaction and primers specific for each genes. The PCR steps were as follows: 95° C. for 20 sec then 40 cycles of 95° C. for 1 sec, 55° C. for 20 sec. […] Relative quantification of gene expression was performed using 2^−ΔΔCT method. Fold changes in the mRNA expression level was calculated following normalization to mouse glucuronidase beta (Gusb) as an endogenous reference.
Snap-frozen mouse tissue samples were homogenized in RIPA buffer with protease and phosphatase inhibitor (Thermo Scientific) by Precellys at 6000 rpm for 40 sec. […] Total protein concentration was quantified using the BCA protein Assay (Thermo Scientific). […] Protein bands were quantified by Image J.

The subject of a further experiment is HTT mRNA. Description: Blood HTT mRNA in infants with Type 1 SMA (droplet digital PCR). Format: in vivo, human. How it is done:
The effect of branaplam on the expression levels of Huntingtin (HTT) mRNA was assessed in infants with Type I spinal muscular atrophy who were enrolled in an open-label multi-part first-in-human proof of concept study of oral branaplam.
Patients were dosed once weekly with branaplam. The branaplam doses were escalated in subsequent cohorts until MTD was determined or when PK results confirmed that the MTD could not be reached due to a potential pharmacokinetic exposure plateau at higher doses. […]
Levels of HTT mRNA and novel-exon-included HTT mRNA were then quantified by polymerase chain reaction (PCR) using the Bio-Rad QX200 droplet digital PCR system. […]
For HTT mRNA levels, two independent predesigned quantitative PCR assays (Assay Hs.PT.58.14833829 with forward primer 5′-[…]-3′ (SEQ ID NO: 10), reverse primer 5′-[…]-3′ (SEQ ID NO: 11) and probe 5′-56-FAM/CGCTTCCAC/ZEN/TTGTCTTCATTCTCCTTGT/3IABKFQ-3′ (SEQ ID NO: 12) and assay Hs.PT.58.25550542 with forward primer 5′-[…]-3′ (SEQ ID NO: 13), reverse primer 5′-CACCACTCTGGCTTCACAA-3′ (SEQ ID NO: 14) and probe 5′-56-FAM/CCCGACAGC/ZEN/GAGTCAGTGATTGTT/3IABKFQ-3′ (SEQ ID NO: 15), purchased from Integrated DNA Technologies, Inc.) were used. […]

The source of these data is patent publication US20240216369A1, “THE USE OF A SPLICING MODULATOR FOR A TREATMENT SLOWING PROGRESSION OF HUNTINGTON'S DISEASE” (Novartis AG, priority 2019, published 2024).

Turning to `CC1(C)CC(Oc2ccc(-c3ccc(-c4cn[nH]c4)cc3O)nn2)CC(C)(C)N1` [Compound 18, 5-(1H-pyrazol-4-yl)-2-(6-((2,2,6,6-tetramethylpiperidin-4-yl)oxy)pyridazin-3-yl)phenol], the “effect on endogenous mouse HTT transcript or protein” value in experiment [1] is on record as “no lowering effect”. In addition, the “inclusion of the novel exon into blood HTT mRNA” value in the experiment with HTT mRNA (infants with Type 1 SMA, once weekly oral, up to 1450 study days, listed as branaplam) was “induced and elevated”. The “blood HTT mRNA levels between study days 904 and 1450” value with HTT mRNA (only 1-5 long-term treated subjects) is reported as “returned to values around baseline levels”.
